Experimental data taken from patent publication US20260373160A1, “COMPOSITION FOR IMPROVEMENT, PREVENTION OR TREATMENT OF STRESS AND DEPRESSION RELATED DISEASES COMPRISING TALAMPANEL” (POSTECH RESEARCH AND BUSINESS DEVELOPMENT FOUNDATION, priority 2022, published 2026).

Key:
Type in all cases: in vivo, C57BL6/J mice
[1] = Body weight change in mouse model of chronic restraint stress-based depression; conditions: for body weight change compared to the control group: 15 days, with 4 h daily restraint stress, FIG. 3
Method: (§1) Experimental animals, 8-9 week old male C57BL6/J mice, were provided by Hyochang Science in Daegu, Korea. Mice were provided with food and water ad libitum under diurnal lighting conditions (12 hours light, 12 hours dark). All animal experimental procedures were approved by the Institutional Animal Care and Use Committee (IACUC) of Pohang University of Science and Technology, and all experiments were conducted in compliance with the approved guidelines.
(§2) To induce mice of chronic restraint stress-based depression, 8-9 week old male C57BL6/J mice were housed in single cages one day before the experiment.
(§3) Thirty minutes after drug administration, the mice were induced to enter a 50 ml conical tube with a hole to allow breathing, and paper towels were placed to eliminate any empty space, ensuring the mice remained in restraint for 4 hours.

[2] = tested on: mouse model of chronic stress-induced depression; assay: Forced swim test (FST) in mouse model of chronic stress-induced depression; conditions: i.p. daily, last 4 of 6 minutes scored
Method: as §1
To induce mice of chronic restraint stress-based depression, 8-9 week old male C57BL6/J mice were housed in single cages one day before the experiment. […]
To perform the forced swim test in a mouse model of chronic stress-induced depression, a cylindrical tank, with a diameter of 20 cm and a height of 30 cm, was filled with water at a temperature range of 25 °C to 28 °C until the water level reached 15 cm. Then, each mouse was carefully placed in water, and the mouse's activity was recorded on video for 6 minutes. […]
Of the total 6 minutes of recording, the first 2 minutes were excluded as habituation, and the immobile time of each mouse was measured for the next 4 minutes. Mouse movement was defined as any activity other than the minimal movements required to maintain body balance and to ensure the head remained above water, and the immobile time was measured. […]

[3] = tested on: mouse model of chronic stress-induced depression; assay: Tail suspension test (TST) in mouse model of chronic stress-induced depression; conditions: 28 days of restraint stress, i.p. daily; 6 minutes scored; FIG. 6
Method: as §1, §2
Thirty minutes after drug administration, the mice were induced to enter a 50 ml conical tube with a hole to allow breathing, and paper towels were placed to eliminate any empty space, ensuring the mice remained in restraint for 4 hours. […]
The activity of each mouse was recorded on video for 6 minutes. Up to four mice were tested at a time, and the immobile time of each mouse was measured for a total of 6 minutes. The movement status of the mouse was defined based on limb movement, with a state of immobility determined when all limbs remained motionless, and the immobile time was measured. […]

[4] = tested on: mouse model of chronic stress-induced depression; assay: Sucrose preference test (SPT) in mouse model of chronic stress-induced depression; conditions: 28 days of restraint stress, i.p. daily; 2% sugar solution vs water, 3 hours; FIG. 7
Method: as §1, §2, §3
To perform a sugar preference test in a mouse model of chronic stress-induced depression, the mice were deprived of food and water for 18 hours on Day 1 of the experiment. On Days 2 and 3, the mice were provided with food, along with a 2% sugar solution and water simultaneously to allow exposure to the 2% sugar. […] To measure the intake of the mice, the weights of the solution and bottle were recorded before and after the 3-hour test.
Sucrose preference was calculated by the following expression: (Sugar solution intake/Total liquid intake)×100. […]

## CC(=O)N1N=C(c2ccc(N)cc2)c2cc3c(cc2C[C@H]1C)OCO3 [talampanel]
[1]; 1 mg/kg i.p. daily
  body weight change compared to the control group: increase in body weight compared to the control group from Day 8 of administration
[1]; 10 mg/kg i.p. daily
  body weight change compared to the control group: increase in body weight compared to the control group from Day 8 of administration
[1]; i.p. daily, restraint stress, conclusion from body weight measurement
  effect on weight loss due to stress and depression: preventing weight loss caused by sustained stress
[2]; 15 days of restraint stress, FIG. 4
  immobile time in forced swim test compared to the control group: significant reduction in immobile time
[2]; 28 days of restraint stress, FIG. 5
  immobile time in forced swim test compared to the control group: significant reduction in immobile time
[3]
  immobile time in tail suspension test compared to the control group: significant reduction in immobile time
[4]
  sucrose preference (sugar solution intake/total liquid intake) compared to the control group: increased preference for the sugar solution compared to the control group
